Experimental data published in PubChem BioAssay (NCI).
Where “and” joins values, the source holds several entries; their conditions need not be identical. Equal entries are not always repeated.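 Five compound concentrations were applied to cells in 96-well plates for 48 hours; endpoints were derived by simple linear interpolation of the resulting dose-response curve. GI50: concentration for 50% inhibition of growth. Definition used: TGI = concentration required for complete inhibition of growth.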

Legend:
Experiment in all cases: NCI-60 cell line screen, 48 h
[1] = system: UACC-257 melanoma
[2] = system: NCI-H23 lung
[3] = system: RPMI-8226 leukemia
[4] = system: SW-620 colon
[5] = system: RXF 393 renal
[6] = system: MDA-N
[7] = system: K-562 leukemia
[8] = system: KM12 colon
[9] = system: HCC-2998 colon
[10] = system: SK-MEL-5 melanoma
[11] = system: SN12C renal
[12] = system: SF-295 CNS
[13] = system: HL-60(TB) leukemia
[14] = system: HS 578T breast
[15] = system: SK-MEL-2 melanoma
[16] = system: A549 NSCLC
[17] = system: DU-145 prostate
[18] = system: HT29 colon
[19] = system: NCI/ADR-RES ovarian
[20] = system: OVCAR-8 ovarian
[21] = system: OVCAR-5 ovarian
[22] = system: SNB-19 CNS
[23] = system: DMS 114 small cell lung
[24] = system: BT-549 breast
[25] = system: LOX IMVI melanoma
[26] = system: UACC-62 melanoma
[27] = system: TK-10 renal
[28] = system: UO-31 renal
[29] = system: SNB-75 CNS
[30] = system: SR leukemia
[31] = system: M19-MEL melanoma
[32] = system: EKVX NSCLC
[33] = system: COLO 205 colon
[34] = system: MCF7 breast
[35] = system: HOP-62 NSCLC
[36] = system: OVCAR-4 ovarian
[37] = system: 786-0 renal
[38] = system: ACHN renal
[39] = system: PC-3 prostate
[40] = system: NCI-H460 lung
[41] = system: U251 CNS
[42] = system: SK-OV-3 ovarian
[43] = system: SNB-78 CNS
[44] = system: OVCAR-3 ovarian
[45] = system: M14 melanoma
[46] = system: SK-MEL-28 melanoma
[47] = system: MDA-MB-231 breast
[48] = system: MALME-3M melanoma
[49] = system: MOLT-4 leukemia
[50] = system: NCI-H226 lung
[51] = system: IGROV1 ovarian
[52] = system: DMS 273 small cell lung
[53] = system: SF-268 CNS
[54] = system: HCT-116 colon
[55] = system: NCI-H522 lung
[56] = system: XF 498 CNS
[57] = system: MDA-MB-435
[58] = system: RXF-631 renal
[59] = system: T-47D breast
[60] = system: HCT-15 colon
[61] = system: DLD-1 colon
[62] = system: A498 renal
[63] = system: LXFL 529 NSCLC
[64] = system: CAKI-1 renal
[65] = system: SF-539 CNS
[66] = system: HOP-18 NSCLC
[67] = system: HOP-92 NSCLC
[68] = system: CCRF-CEM leukemia
[69] = system: KM20L2 colon

Compound: C/C(=N\NC(=S)N1CCN(c2ccccn2)CC1)c1nccs1
- TGI [1]: 12.8 µM
- GI50 [2]: 0.0643 µM
- TGI [2]: 13.8 µM
- GI50 [3]: 0.0145 µM
- TGI [3]: 23.2 µM
- TGI [4]: 20.2 µM
- TGI [5]: 17.4 µM
- TGI [6]: 16.6 µM
- GI50 [7]: 0.00649 µM
- TGI [7]: 6.33 µM
- TGI [8]: 18.9 µM
- TGI [9]: 14.9 µM
- TGI [10]: 6.3 µM
- TGI [11]: 15.9 µM
- TGI [12]: 20.7 µM
- GI50 [13]: 0.00712 µM
- TGI [13]: 0.0419 µM and 0.0526 µM
- TGI [14]: 38.3 µM
- TGI [15]: 9.9 µM
- TGI [16]: 13.3 µM
- TGI [17]: 14.1 µM
- TGI [18]: 33.7 µM
- GI50 [19]: 0.279 µM
- TGI [19]: 2.56 µM
- TGI [20]: 14.4 µM
- GI50 [21]: 0.0544 µM
- TGI [21]: 27.4 µM
- TGI [22]: 32.8 µM
- TGI [23]: 0.649 µM
- TGI [24]: 18 µM
- GI50 [25]: 0.0952 µM
- TGI [25]: 2.42 µM
- TGI [26]: 0.834 µM
- TGI [27]: 20 µM
- TGI [28]: 14 µM
- TGI [29]: 19.4 µM
- GI50 [30]: 0.236 µM
- TGI [30]: 4.63 µM
- TGI [31]: 2.34 µM
- GI50 [32]: 0.0334 µM
- TGI [32]: 10.6 µM
- GI50 [33]: 0.0361 µM
- TGI [33]: 15.3 µM
- GI50 [34]: 0.377 µM
- TGI [34]: 18.3 µM
- TGI [35]: 16.8 µM
- TGI [36]: 22.5 µM
- TGI [37]: 13 µM
- TGI [38]: 9.96 µM
- GI50 [39]: 0.525 µM
- TGI [39]: 17.4 µM
- TGI [40]: 2.3 µM
- TGI [41]: 9.8 µM
- TGI [42]: 18.3 µM
- TGI [43]: 71.4 µM
- GI50 [44]: 0.00821 µM and < 0.0205 µM
- TGI [45]: 1.49 µM
- TGI [46]: 19.9 µM
- GI50 [47]: 0.796 µM
- TGI [47]: 20 µM
- TGI [48]: 18.5 µM
- GI50 [49]: 0.00504 µM
- TGI [49]: 22.3 µM
- TGI [50]: 6.66 µM
- GI50 [51]: 0.0817 µM
- TGI [51]: 20.2 µM
- TGI [52]: 11.4 µM
- TGI [53]: > 54.2 µM
- GI50 [54]: 0.0156 µM
- TGI [54]: 20.2 µM
- GI50 [55]: 0.0574 µM and 0.261 µM
- TGI [55]: 16.3 µM
- TGI [56]: 32.1 µM
- TGI [57]: 12.8 µM
- TGI [58]: 24.2 µM
- GI50 [59]: 0.855 µM
- TGI [59]: 22.1 µM
- GI50 [60]: 0.0472 µM
- TGI [60]: 21.3 µM
- TGI [61]: 34.4 µM
- TGI [62]: 17.4 µM
- TGI [63]: 22 µM
- TGI [64]: 19.9 µM
- TGI [65]: 4.37 µM
- TGI [66]: > 90.8 µM
- GI50 [67]: 0.017 µM
- GI50 [68]: 0.00596 µM
- TGI [68]: 0.256 µM

Compound: O=c1c(O)cccn1C1OC(CO)C(O)C1O (stereo unspecified)
- TGI [1]: > 100 µM
- TGI [2]: > 100 µM
- TGI [3]: > 100 µM
- TGI [5]: > 100 µM
- TGI [7]: > 100 µM
- TGI [8]: > 100 µM
- TGI [9]: > 100 µM
- TGI [11]: > 100 µM
- TGI [15]: > 100 µM
- TGI [16]: > 100 µM
- TGI [18]: > 100 µM
- TGI [20]: > 100 µM
- TGI [21]: > 100 µM
- TGI [22]: > 100 µM
- TGI [23]: > 100 µM
- TGI [25]: > 100 µM
- TGI [26]: > 100 µM
- TGI [27]: > 100 µM
- TGI [28]: > 100 µM
- TGI [29]: > 100 µM
- TGI [32]: > 100 µM
- TGI [33]: > 100 µM
- TGI [36]: > 100 µM
- TGI [37]: > 100 µM
- TGI [38]: > 100 µM
- TGI [40]: > 100 µM
- TGI [41]: > 100 µM
- TGI [42]: > 100 µM
- TGI [43]: > 100 µM
- TGI [45]: > 100 µM
- TGI [46]: > 100 µM
- TGI [48]: > 100 µM
- TGI [50]: > 100 µM
- TGI [51]: > 100 µM
- TGI [52]: > 100 µM
- TGI [53]: > 100 µM
- TGI [54]: > 100 µM
- TGI [55]: > 100 µM
- TGI [58]: > 100 µM
- TGI [60]: > 100 µM
- TGI [61]: > 100 µM
- TGI [69]: > 100 µM
- TGI [62]: > 100 µM
- TGI [63]: > 100 µM
- TGI [64]: > 100 µM
- TGI [66]: > 100 µM
- TGI [67]: > 100 µM
- TGI [68]: > 100 µM
